One experiment deals with T1, PI3Kα (Homo sapiens, UniProt P42336).
T1 construct: purchased Millipore Corporation 14-602-K
The experiment can be described thus: PI3-Kinase HTRF assay, PI3Kα. Format: biochemical. To be noted: bins Greater than 10 μM and Greater than 1 μM to 10 μM; 10 μM ATP, PIP2 at 10 μM; read-out: IC50 P13Kα. The method in brief:
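Purified recombinant human PI3Kα, β, γ or δ (0.25-0.3 μg/ml) preincubated 15 min at room temperature with compound (2% DMSO) and 10 μM PIP2, then reacted 1 h with 10 μM ATP. PIP3 product detected by competitive HTRF (GST-PH domain/biotin-PIP3); IC50 from 12-point curves, 20 μM to 0.1 nM, by nonlinear regression.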

In another experiment the target is T2, PI3Kβ (Homo sapiens, UniProt P42338).
T2 construct: purchased Millipore Corporation 14-603-K
Description: PI3-Kinase HTRF assay, PI3Kβ. Format: biochemical. Particulars: bins Greater than 10 μM and Greater than 1 μM to 10 μM; 10 μM ATP, PIP2 at 10 μM. The source says: A PI3-Kinase HTRF® assay kit (cat No. 33-016) purchased from Millipore Corporation was used to screen compounds provided herein. This assay used specific, high affinity binding of the GRPI pleckstrin homology (PH) domain to PIP3, the product of a Class 1A or 1B PI3 Kinase acting on its physiological substrate PIP2. During the detection phase of the assay, a complex was generated between the GST-tagged PH domain and biotinylated short chain PIP3. The biotinylated PIP3 and the GST-tagged PH domain recruited fluorophores (Streptavidin-Allophycocyanin and Europium-labeled anti-GST respectively) to form the fluorescence resonance energy transfer (FRET) architecture, generating a stable time-resolved FRET signal. The FRET complex was disrupted in a competitive manner by non-biotinylated PIP3, a product formed in the PI3 Kinase assay.
PI3 Kinase α, β, γ and δ activity was assayed using the PI3 Kinase HTRF® assay kit (catalogue No. 33-016) purchased from Millipore Corporation. Purified recombinant PI3Kα (catalogue No. 14-602-K), PI3Kβ (catalogue No. 14-603-K), PI3Kγ (catalogue No. 14-558-K) and PI3Kδ (catalogue No. 14-604-K) were obtained from Millipore Corporation. Purified recombinant PI3K enzyme was used to catalyze the phosphorylation of phosphatidylinositol 4,5-bisphosphate (PIP2 at 10 μM) to phosphatidylinositol 3,4,5-trisphosphate (PIP3) in the presence of 10 μM ATP. The assay was carried out in 384-well format and detected using a Perkin Elmer EnVision Xcite Multilabel Reader. Emission ratios were converted into percent inhibitions and imported into GraphPad Prism software. The concentration necessary to achieve inhibition of enzyme activity by 50% (IC50) was calculated using concentrations ranging from 20 μM to 0.1 nM (12-point curve). IC50 values were determined using a nonlinear regression model available in GraphPad Prism 5. […]
On the technique in general: In TR-FRET formats the signal depends on donor and acceptor labels being close together.

For a further experiment, the system named is Balb/c splenic B cells. Description: B cell activation and proliferation assay. It is filed as cell-based. To be noted: Mus musculus, read-out: B cell proliferation EC50. The method in brief: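 Balb/c splenic B cells were isolated by Ficoll gradient and magnetic separation, plated at 50.000 cells/well in RPMI/10% FBS, and pre-incubated with compound for 30 min at 37° C (0.2% DMSO). Cells were stimulated for 72 h with a cocktail of 10 μg/ml LPS or 5 μg/ml anti-mouse IgM F(ab′)2 plus 2 ng/ml IL4. Alamar Blue fluorescence (560Ex/590Em) after 5 h gave IC50 or EC50.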

The subject of experiment [1] is phospho-AKT in RAW 264.7 cells (PI3Kγ). Description: PI3Kγ selective assay, phospho-AKT in RAW 264.7 cells. Format: cell-based. Particulars: Mus musculus, RAW264.7; stimulated with C5a; ranges less than 100 nM and between 100 nM and 1 μM (given as 100-1000); read-out: IC50 for phospho-AKT, RAW 264.7 cell model. An excerpt: A compound's ability in selectively inhibiting PI3Kγ can be assessed using RAW264.7 macrophages. Briefly, serum-starved PAW264.7 cells are stimulated with a known GPCR agonist C5a. (See, e.g., Camps et al., Nature Medicine (2005) 11(9): 936-943). Cells can be treated with test compounds prior to, simultaneously with, or subsequent to the stimulation by C5a. RAW 264.7 cells respond to the complement component fragment C5a through activation of the C5a receptor, and the C5a receptor activates macrophages and induces cell migration. Test compounds' ability to inhibit C5a-mediated AKT phosphorylation is indicative of selective inhibition of PI3Kγ. Thus, by monitoring the reduction of phospho-AKT in stimulated RAW 264.7 cells (using for example, phospho-AKT antibodies), a compound's potential efficacy in selectively inhibiting PI3Kγ can be assessed.

The subject of experiment [2] is phospho-AKT in RAJI cells (PI3Kδ). Description: PI3Kδ selective assay, phospho-AKT in RAJI cells. Format: cell-based. Particulars: RAJI cells stimulated with anti-human IgM; read-out: IC50 for phospho-AKT, RAJI cell model. The source says: A compound's ability in selectively inhibiting PI3Kδ can be assessed using RAJI cells, i.e., B lymphocyte cells derived from lymphoma patients. Briefly, serum-starved RAJI cells are stimulated with anti-human IgM, thereby causing signaling through the B-cell receptors, as described in, for example, He et al., Leukemia Research (2009) 33: 798-802. B-cell receptor signaling is important for the activation, differentiation, and survival of B cells and certain B-cell derived cancers. Reduction of phospho-AKT is indicative of compounds that may inhibit B-cell proliferation and function in certain diseases. By monitoring the reduction of phospho-AKT in stimulated RAJI cells (using for example, phospho-AKT antibodies), a compound's potential efficacy in selectively inhibiting PI3Kδ can be assessed.

Where [3] appears, read: column bins 1 μM to 100 nM (given as 100-1000) and Less than 100 nM.

Read-outs that look alike come from different tables or passages of the source. Bounds are passed on as bounds.

T1 sequence (P42336 whole entry): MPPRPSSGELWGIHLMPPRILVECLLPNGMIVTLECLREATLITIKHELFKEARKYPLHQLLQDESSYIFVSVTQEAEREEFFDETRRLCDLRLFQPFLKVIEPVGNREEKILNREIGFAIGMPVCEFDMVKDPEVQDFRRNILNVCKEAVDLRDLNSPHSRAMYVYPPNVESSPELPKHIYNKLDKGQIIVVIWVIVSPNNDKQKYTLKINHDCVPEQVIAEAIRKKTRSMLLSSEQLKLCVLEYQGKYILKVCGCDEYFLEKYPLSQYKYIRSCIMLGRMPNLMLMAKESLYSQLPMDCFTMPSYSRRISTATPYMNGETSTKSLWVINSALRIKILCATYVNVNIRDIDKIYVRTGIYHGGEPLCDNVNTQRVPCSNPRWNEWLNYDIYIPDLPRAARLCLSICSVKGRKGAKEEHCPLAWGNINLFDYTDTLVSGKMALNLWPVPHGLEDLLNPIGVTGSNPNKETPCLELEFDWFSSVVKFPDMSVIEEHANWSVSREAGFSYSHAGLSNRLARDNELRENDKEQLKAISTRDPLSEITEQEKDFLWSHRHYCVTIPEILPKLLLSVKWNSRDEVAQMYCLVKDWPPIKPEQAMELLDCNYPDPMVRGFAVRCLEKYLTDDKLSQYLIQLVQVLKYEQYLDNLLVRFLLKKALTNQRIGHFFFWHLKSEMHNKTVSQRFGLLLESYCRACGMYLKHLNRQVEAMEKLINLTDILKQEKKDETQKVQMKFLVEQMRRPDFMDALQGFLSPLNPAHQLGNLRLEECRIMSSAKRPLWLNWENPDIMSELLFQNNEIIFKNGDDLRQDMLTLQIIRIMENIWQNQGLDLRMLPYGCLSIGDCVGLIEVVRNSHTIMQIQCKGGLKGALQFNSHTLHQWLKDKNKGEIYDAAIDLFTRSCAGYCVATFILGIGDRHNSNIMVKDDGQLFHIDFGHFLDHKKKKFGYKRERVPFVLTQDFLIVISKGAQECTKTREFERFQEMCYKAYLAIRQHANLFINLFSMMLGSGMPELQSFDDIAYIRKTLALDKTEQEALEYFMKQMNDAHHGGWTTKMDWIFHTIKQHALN
T1 sequence (P27986 whole entry partner): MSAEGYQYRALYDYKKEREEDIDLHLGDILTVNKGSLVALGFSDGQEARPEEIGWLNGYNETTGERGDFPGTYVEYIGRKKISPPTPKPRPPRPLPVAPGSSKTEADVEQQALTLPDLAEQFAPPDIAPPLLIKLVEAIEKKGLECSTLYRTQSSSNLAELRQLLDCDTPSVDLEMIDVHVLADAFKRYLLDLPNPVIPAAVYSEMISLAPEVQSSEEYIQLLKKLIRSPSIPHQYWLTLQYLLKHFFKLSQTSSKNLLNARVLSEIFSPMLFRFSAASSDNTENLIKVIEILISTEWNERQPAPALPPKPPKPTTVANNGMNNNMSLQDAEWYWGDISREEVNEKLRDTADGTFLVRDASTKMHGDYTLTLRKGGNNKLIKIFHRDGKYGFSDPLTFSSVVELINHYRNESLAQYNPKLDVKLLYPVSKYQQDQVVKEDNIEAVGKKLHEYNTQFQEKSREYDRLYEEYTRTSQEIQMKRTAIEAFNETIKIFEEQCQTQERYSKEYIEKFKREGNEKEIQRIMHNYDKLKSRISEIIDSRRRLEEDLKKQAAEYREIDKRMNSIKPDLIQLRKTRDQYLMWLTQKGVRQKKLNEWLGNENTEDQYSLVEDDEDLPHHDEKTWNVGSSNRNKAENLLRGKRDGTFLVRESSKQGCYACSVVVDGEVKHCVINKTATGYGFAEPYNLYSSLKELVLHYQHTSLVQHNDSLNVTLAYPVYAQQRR
T2 sequence (P42338 whole entry): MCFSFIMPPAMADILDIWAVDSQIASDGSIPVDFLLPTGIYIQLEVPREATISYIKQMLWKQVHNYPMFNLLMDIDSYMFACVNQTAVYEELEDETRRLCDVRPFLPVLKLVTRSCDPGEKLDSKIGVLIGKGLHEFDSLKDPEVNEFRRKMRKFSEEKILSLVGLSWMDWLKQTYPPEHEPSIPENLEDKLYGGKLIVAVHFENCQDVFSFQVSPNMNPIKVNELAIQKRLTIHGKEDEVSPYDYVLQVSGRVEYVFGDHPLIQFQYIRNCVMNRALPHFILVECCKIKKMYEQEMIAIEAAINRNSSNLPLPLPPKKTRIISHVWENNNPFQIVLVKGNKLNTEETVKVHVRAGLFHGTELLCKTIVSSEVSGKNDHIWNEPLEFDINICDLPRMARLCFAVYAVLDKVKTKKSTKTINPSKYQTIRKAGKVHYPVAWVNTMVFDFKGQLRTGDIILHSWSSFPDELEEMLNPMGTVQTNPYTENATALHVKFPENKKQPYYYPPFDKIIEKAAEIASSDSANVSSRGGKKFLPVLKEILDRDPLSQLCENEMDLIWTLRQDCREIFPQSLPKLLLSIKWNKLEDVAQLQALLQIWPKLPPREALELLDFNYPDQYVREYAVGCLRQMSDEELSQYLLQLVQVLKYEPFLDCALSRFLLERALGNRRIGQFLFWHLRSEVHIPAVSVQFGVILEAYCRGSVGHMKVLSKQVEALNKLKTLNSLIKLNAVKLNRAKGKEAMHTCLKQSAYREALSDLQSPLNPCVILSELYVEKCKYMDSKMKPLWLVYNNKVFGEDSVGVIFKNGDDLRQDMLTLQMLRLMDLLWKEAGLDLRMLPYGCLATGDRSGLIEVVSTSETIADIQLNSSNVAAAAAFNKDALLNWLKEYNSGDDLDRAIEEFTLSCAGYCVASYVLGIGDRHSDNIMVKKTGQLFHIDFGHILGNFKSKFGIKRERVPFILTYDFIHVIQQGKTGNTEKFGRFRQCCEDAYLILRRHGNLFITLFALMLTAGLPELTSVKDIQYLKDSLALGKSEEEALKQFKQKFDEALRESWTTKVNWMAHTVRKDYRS
T2 sequence (P27986 whole entry partner): as the sequence (P27986 whole entry partner) above

As for `C[C@H](Nc1nc(N)ncc1C#N)c1nc2cccc(-c3ccnnc3)c2c(=O)n1-c1ccccc1` [Compound 66, (S)-2-amino-4-((1-(4-oxo-3-phenyl-5-(pyridazin-4-yl)-3,4-dihydroquinazolin-2-yl)ethyl)amino)pyrimidine-5-carbonitrile], the IC50 on PI3Kα and against PI3Kβ was 1 to 10 µM each time. For the same compound, the EC50 in the experiment with Balb/c splenic B cells (setting [3]) is less than 0.1 µM.
Turning to `C[C@H](Nc1nc(N)ncc1C#N)c1cc2cccc(-c3cnoc3)c2c(=O)n1-c1ccccc1` [Compound 74], the IC50 at PI3Kα and at PI3Kβ was 1 to 10 µM throughout. For the same compound, in the experiment with Balb/c splenic B cells (setting [3]), the EC50 was less than 0.1 µM.
In the case of `C[C@H](Nc1nc(N)ncc1C#N)c1cc2cccc(-c3ccc4c(c3)OCO4)c2c(=O)n1-c1ccccc1` [Compound 94], the IC50 on PI3Kα and against PI3Kβ was 1 to 10 µM each time. For the same compound, the EC50 in the experiment on Balb/c splenic B cells (setting [3]) was less than 0.1 µM.
With `C[C@H](Nc1nc(N)ncc1C#N)c1cc2cccc(-c3cncc(F)c3)c2c(=O)n1-c1ccccc1` [Compound 98], the IC50 on PI3Kα and on PI3Kβ was 1 to 10 µM throughout. Also, in the experiment on Balb/c splenic B cells (setting [3]), the EC50 is less than 0.1 µM.
Regarding `C[C@H](Nc1nc(N)ncc1C#N)c1cc2cccc(-c3cccc(S(N)(=O)=O)c3)c2c(=O)n1-c1ccccc1` [Compound 102], the IC50 on PI3Kα and against PI3Kβ was 1 to 10 µM throughout. Also, the EC50 with Balb/c splenic B cells (setting [3]) is less than 0.1 µM.
On to `COc1ncc(-c2cccc3cc([C@H](C)Nc4nc(N)ncc4C#N)n(C4CC4)c(=O)c23)cn1` [Compound 105], for which the IC50 at PI3Kα and on PI3Kβ was 1 to 10 µM throughout. Further, in the experiment with Balb/c splenic B cells (setting [3]), the EC50 was less than 0.1 µM.
Consider `COc1cc(-c2cccc3nc([C@H](C)Nc4nc(N)ncc4C#N)n(-c4ccccc4)c(=O)c23)ccn1` [Compound 116], for which the IC50 on PI3Kα and at PI3Kβ was 1 to 10 µM in each case. In addition, the EC50 with Balb/c splenic B cells is less than 0.1 µM.
For the compound `C[C@H](Nc1nc(N)ncc1C#N)c1cc2ccccc2c(=O)n1-c1ccccc1` [Compound 125], the IC50 at PI3Kα and at PI3Kβ was 1 to 10 µM each time. In addition, the EC50 in the experiment on Balb/c splenic B cells (setting [3]) is less than 0.1 µM.
Regarding `C[C@H](Nc1nc(N)ncc1C#N)c1cc2cccc(-c3cccc(NS(C)(=O)=O)c3)c2c(=O)n1-c1ccccc1` [Compound 126], the IC50 at PI3Kα and against PI3Kβ was 1 to 10 µM each time. Also, the EC50 in the experiment on Balb/c splenic B cells (setting [3]) is less than 0.1 µM.
As for `C[C@H](Nc1nc(N)ncc1C#N)c1cc2cccc(-c3cccc(NS(=O)(=O)N(C)C)c3)c2c(=O)n1-c1ccccc1` [Compound 127], the IC50 (commonly the concentration needed to halve the response being measured) is 1 to 10 µM on PI3Kα and less than 0.1 µM in experiment [1].
For `C[C@H](Nc1nc(N)ncc1-c1cccc(S(=O)(=O)N2CCCCC2)c1)c1cc2cccc(Cl)c2c(=O)n1-c1ccccc1` [Compound 157], the IC50 in experiment [2] and in experiment [1] was less than 0.1 µM throughout.
`C[C@H](Nc1nc(N)ncc1C#N)c1cc2cccc(-c3ccc(NS(C)(=O)=O)cc3)c2c(=O)n1-c1ccccc1` [Compound 167]: the IC50 on PI3Kα and at PI3Kβ was 1 to 10 µM throughout. Besides, in the experiment on Balb/c splenic B cells (setting [3]), the EC50 was less than 0.1 µM.
On to `C[C@H](Nc1nc(N)ncc1C#N)c1cc2cccc(-c3ccc(=O)n(C)c3)c2c(=O)n1-c1ccccc1` [Compound 183], for which the IC50 at PI3Kα and at PI3Kβ was 1 to 10 µM throughout. The EC50 in the experiment with Balb/c splenic B cells (setting [3]) was less than 0.1 µM.
Consider `C[C@H](Nc1nc(N)ncc1C#N)c1cc2cccc(-c3ccnc(N)c3)c2c(=O)n1-c1ccccc1` [Compound 187], for which the IC50 at PI3Kα and against PI3Kβ was 1 to 10 µM throughout. Also, the EC50 with Balb/c splenic B cells (setting [3]) was less than 0.1 µM.
Take `C[C@H](Nc1nc(N)ncc1C#N)c1cc2cccc(-c3cncc(S(C)(=O)=O)c3)c2c(=O)n1-c1ccccc1` [Compound 189]: the IC50 on PI3Kα and on PI3Kβ was 1 to 10 µM each time. The EC50 in the experiment with Balb/c splenic B cells (setting [3]) was less than 0.1 µM.
Consider `C[C@H](Nc1nc(N)ncc1C#N)c1cc2cccc(-c3c[nH]nn3)c2c(=O)n1-c1ccccc1` [Compound 196], for which the IC50 at PI3Kα and at PI3Kβ was 1 to 10 µM each time. The EC50 in the experiment with Balb/c splenic B cells (setting [3]) was less than 0.1 µM.
Regarding `C[C@H](Nc1nc(N)ncc1C#N)c1cc2cccc(C#CCCC(=O)N3CCCC3)c2c(=O)n1-c1ccccc1` [Compound 207], the IC50 at PI3Kα and against PI3Kβ was 1 to 10 µM throughout. Besides, the EC50 in the experiment with Balb/c splenic B cells (setting [3]) was less than 0.1 µM.
As for `C[C@H](Nc1nc(N)ncc1-c1nccs1)c1cc2cccc(Cl)c2c(=O)n1-c1ccccc1` [Compound 224], the IC50 at PI3Kα and against PI3Kβ was 1 to 10 µM in each case. For the same compound, the EC50 with Balb/c splenic B cells (setting [3]) was less than 0.1 µM.
With `CCn1cc(-c2cccc3cc([C@H](C)Nc4nc(N)ncc4C#N)n(-c4ccccc4)c(=O)c23)ccc1=O` [Compound 230], the IC50 at PI3Kα and against PI3Kβ was 1 to 10 µM each time. The EC50 in the experiment with Balb/c splenic B cells (setting [3]) was less than 0.1 µM.
As to `C[C@H](Nc1nc(N)ncc1C#N)c1cc2cccc(-c3ccc(=O)n(CC4CC4)c3)c2c(=O)n1-c1ccccc1` [Compound 232], the 50% inhibitory concentration (IC50) at PI3Kα and on PI3Kβ was 1 to 10 µM each time. Moreover, in the experiment on Balb/c splenic B cells (setting [3]), the EC50 was less than 0.1 µM.
Consider `CC(C)n1cc(-c2cccc3cc([C@H](C)Nc4nc(N)ncc4C#N)n(-c4ccccc4)c(=O)c23)ccc1=O` [Compound 234], for which the IC50 on PI3Kα and at PI3Kβ was 1 to 10 µM in each case. Besides, in the experiment on Balb/c splenic B cells (setting [3]), the EC50 was less than 0.1 µM.
Consider `COc1cc(-c2cccc3cc(CNc4nc(N)ncc4C#N)n(-c4ccccc4)c(=O)c23)ccn1` [Compound 242], for which the figures for the IC50 in experiment [2] and in experiment [1] were less than 0.1 µM and 0.1 to 1 µM, respectively.
In the same order, the values of `C[C@H](Nc1nc(N)ncc1C#N)c1cc2cccc(Cl)c2c(=O)n1-c1cc(F)cc(F)c1` [Compound 273] are less than 0.1 µM and 0.1 to 1 µM.
Take `C[C@H](Nc1nc(N)ncc1C#N)c1cc2cccc(Cl)c2c(=O)n1C` [Compound 276]: the IC50 in experiment [1] was less than 0.1 µM.
In the case of `C[C@H](Nc1nc(N)ncc1C#N)c1cc2cccc(Cl)c2c(=O)n1C1CCCCC1` [Compound 300], the IC50 on PI3Kα and against PI3Kβ was 1 to 10 µM throughout. In addition, in the experiment on Balb/c splenic B cells (setting [3]), the EC50 is less than 0.1 µM.
Consider `CC(C)OC(=O)c1cccc(-n2c([C@H](C)Nc3nc(N)ncc3C#N)cc3cccc(Cl)c3c2=O)c1` [Compound 312], for which the IC50 is less than 0.1 µM in experiment [2] and 0.1 to 1 µM in experiment [1].
In the same order, the values of `C[C@H](Nc1ncnc(N)c1C#N)c1cc2cccc(Cl)c2c(=O)n1-c1ccon1` [Compound 335] are less than 0.1 µM and 0.1 to 1 µM.
For the compound `C[C@H](Nc1nc(N)ncc1C#N)c1cc2cccc(-c3ccnc(NS(C)(=O)=O)c3)c2c(=O)n1-c1ccccc1` [Compound 443], the IC50 on PI3Kα and on PI3Kβ was 1 to 10 µM in each case. Also, the EC50 in the experiment on Balb/c splenic B cells (setting [3]) is less than 0.1 µM.

The values above are taken from patent US8785470B2, “Heterocyclic compounds and uses thereof” (Infinity Pharmaceuticals, Inc., priority 2011, dated 2014).
